Like-named read-outs stand apart in the source and are kept apart here.
Legend:
[1] = set-up: method as in PMID 34908893; conditions: mice; 90‐day; cited from earlier work
[2] = set-up: method as in PMID 34908893; conditions: rats; 90‐day; cited from earlier work
mouse Oatp1a1 = target: T1, mouse Oatp1a1 (Mus musculus, UniProt Q9QXZ6); test: in vitro; conditions: 293FT cells transiently transfected with mouse Oatp1a1, probe radiolabeled S‐3100‐CA
T1 sequence (Q9QXZ6 1-670): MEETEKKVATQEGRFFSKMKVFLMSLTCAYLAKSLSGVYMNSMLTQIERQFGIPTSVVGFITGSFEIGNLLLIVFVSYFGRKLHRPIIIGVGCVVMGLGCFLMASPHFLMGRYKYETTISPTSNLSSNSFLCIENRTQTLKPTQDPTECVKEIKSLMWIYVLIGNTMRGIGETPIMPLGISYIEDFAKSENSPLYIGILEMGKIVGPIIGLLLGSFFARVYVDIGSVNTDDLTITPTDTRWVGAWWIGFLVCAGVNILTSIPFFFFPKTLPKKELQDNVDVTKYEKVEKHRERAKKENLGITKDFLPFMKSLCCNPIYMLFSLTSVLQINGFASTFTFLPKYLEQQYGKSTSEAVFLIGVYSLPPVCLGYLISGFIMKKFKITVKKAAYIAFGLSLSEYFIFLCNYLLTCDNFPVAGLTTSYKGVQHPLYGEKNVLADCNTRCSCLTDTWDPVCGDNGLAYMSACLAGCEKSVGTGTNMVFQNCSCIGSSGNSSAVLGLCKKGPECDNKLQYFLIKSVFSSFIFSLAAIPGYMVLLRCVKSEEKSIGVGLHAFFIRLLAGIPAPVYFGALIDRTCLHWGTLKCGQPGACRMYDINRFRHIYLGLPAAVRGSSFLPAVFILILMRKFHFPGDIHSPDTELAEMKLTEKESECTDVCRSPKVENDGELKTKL
Method: Transport experiments were conducted approximately 24 h post‐transfection. The experiments were initiated by aspirating culture medium and addition of pre‐warmed radiolabeled substrate solution (final 1.0% of acetonitrile or 0.9% of ethanol in phosphate‐buffered saline (PBS[−])) to each well. After a 10‐min incubation, cells were washed twice with 1 ml of ice‐cold PBS(−) and lysed with 700 μl of 1.0 M NaOH for 3 h or more at room temperature. The lysate was transferred to a 1.5‐ml tube, and neutralized with 350 μl of 2.0 M HCl and 350 μl of 2.0% sodium dodecyl sulfate (SDS) solution. From the lysate, 1.0 ml was transferred to a vial containing 10 ml of Emulsifier Scintillator Plus to measure the radioactivity in the LSC. The protein concentration of the cell lysate was also measured using a Pierce™ BCA Protein Assay Kit (Thermo Fisher Scientific, Inc.), which was used to normalize, according to the cell number, the radioactivity in the cell lysate extract. The protein assay was performed in duplicate. Each sample type was assayed in triplicate wells, and each run was performed twice. […] Each sample type was assayed in triplicate wells.

mouse Oatp1b2 = target: T2, mouse Oatp1b2 (Mus musculus, UniProt Q9JJL3); test: Inhibition of S‐3100‐CA uptake by OATP inhibitors, mouse Oatp1b2; assay type: in vitro ADME; set-up: expressed in transfected cells; host or cells: 293FT cells; conditions: inhibitor at 100 μM
T2 sequence (Q9JJL3 1-689): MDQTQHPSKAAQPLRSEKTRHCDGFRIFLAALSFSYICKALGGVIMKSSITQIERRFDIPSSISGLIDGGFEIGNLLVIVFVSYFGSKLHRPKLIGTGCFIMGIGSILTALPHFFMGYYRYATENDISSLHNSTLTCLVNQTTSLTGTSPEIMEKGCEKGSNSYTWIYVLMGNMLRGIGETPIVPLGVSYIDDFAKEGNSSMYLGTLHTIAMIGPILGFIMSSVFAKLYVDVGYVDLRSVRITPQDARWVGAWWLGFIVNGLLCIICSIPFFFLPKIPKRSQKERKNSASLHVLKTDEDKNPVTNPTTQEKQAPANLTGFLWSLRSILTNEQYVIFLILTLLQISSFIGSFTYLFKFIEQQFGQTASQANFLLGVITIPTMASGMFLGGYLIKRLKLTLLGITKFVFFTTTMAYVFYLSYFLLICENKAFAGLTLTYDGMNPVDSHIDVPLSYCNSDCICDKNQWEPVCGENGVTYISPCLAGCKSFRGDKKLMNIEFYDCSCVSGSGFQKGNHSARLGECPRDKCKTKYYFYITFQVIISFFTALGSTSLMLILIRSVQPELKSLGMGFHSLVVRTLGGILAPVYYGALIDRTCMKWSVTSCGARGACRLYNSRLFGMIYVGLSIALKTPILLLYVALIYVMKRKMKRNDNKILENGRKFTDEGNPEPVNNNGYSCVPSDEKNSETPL
Method: 293FT cells were purchased from Thermo Fisher Scientific, Inc.. The cells were grown in Dulbecco's modified Eagle medium (supplemented with 4.5 g/L glucose and 2 mM L‐glutamine) at 37°C, 5% CO2, and 95% humidity. The cells were passaged 3 times per week by harvesting cells using trypsin and plating at a density of 1.0 × 10^4 cells/cm^2 in a 10 cm cell culture plate for maintenance culture. The 293FT cells were detached using trypsin and re‐seeded at a density of 2.5 × 10^4 cells/cm^2 in BioCoat™ Collagen I 6‐well plates (Corning Inc.) for transfection and then treated with 1.2 μg of plasmid vector and 3.2 μl of Lipofectamine™ 2000 Transfection Reagent (Thermo Fisher Scientific, Inc.) according to the manufacturer's instructions. After a 3‐h treatment, the transfection medium was replaced with a fresh cell culture medium and incubated at 37°C with 95% humidity and 5% CO2 until ready for the assay.
Transport experiments were conducted approximately 24 h post‐transfection. […] From the lysate, 1.0 ml was transferred to a vial containing 10 ml of Emulsifier Scintillator Plus to measure the radioactivity in the LSC. The protein concentration of the cell lysate was also measured using a Pierce™ BCA Protein Assay Kit (Thermo Fisher Scientific, Inc.), which was used to normalize, according to the cell number, the radioactivity in the cell lysate extract. […]

## CCOC(=O)COc1ncccc1Oc1cc(-n2c(=O)cc(C(F)(F)F)n(C)c2=O)c(F)cc1Cl [Epyrifenacil, ethyl[(3‐{2‐chloro‐4‐fluoro‐5‐[3‐methyl‐2,6‐dioxo‐4‐(trifluoromethyl)‐3,6‐dihydropyrimidin‐1(2H)‐yl]phenoxy}pyridin‐2‐yl)oxy]acetate]
[1]
  Hepatocyte injury: produced hepatocyte injury
[2]
  Hepatocyte injury: produced hepatocyte injury

## CO[C@H]1/C=C/O[C@@]2(C)Oc3c(C)c(O)c4c(O)c(c(/C=N/N5CCN(C)CC5)c(O)c4c3C2=O)NC(=O)/C(C)=C\C=C\[C@H](C)[C@H](O)[C@@H](C)[C@@H](O)[C@@H](C)[C@H](OC(C)=O)[C@@H]1C [RIF, Rifampicin]
Mouse Oatp1a1
  inhibition at 10 min, 10 µM: > 50%
Mouse Oatp1b2
  Uptake of S‐3100‐CA, % of that by vehicle‐treated cells: less than 40%
